Results taken from patent publication US20220117938A1, “COMBINATON THERAPY WITH A DON PRODRUG AND AN IMMUNE CHECKPOINT INHIBITOR” (DRACEN PHARMACEUTICALS, INC., priority 2019, published 2022).

Key:
[1] = tested on: A549 tumors; assay: Anti-tumor efficacy of Compound 1 in the A549 xenograft model (Example 11); format: in vivo, mice
Description: Female BALB/c nude mice were inoculated subcutaneously in the right flank with A549 cells for tumor development. Eight days after tumor inoculation, mice with tumor sizes ranging from 100-200 mm^3 (average tumor size 156 mm^3) were selected and assigned into groups using stratified randomization with 8 mice per group based upon their tumor volumes. The treatments were started from the day of randomization (defined as D0), Group 1 was treated with Vehicle control, 10 ml/kg, IP, bid×21; Group 4 was treated with Compound 1; 1.4 mg/kg, SC, 5d ON, 2 d OFF×3 cycles; and Group 5 was treated with Compound 1, 3.3 mg/kg, IV, tiw, (Fri, Sun, Tues), ×3 cycles. The tumor sizes were measured two times per week during the treatment. The entire study was terminated on D21 after start of the treatment. All treatments were well-tolerated without any adverse effects or significant body weight loss.

[2] = tested on: MC-38 tumors; assay: Anti-tumor efficacy of Compound 1 with and without anti-PD-1 in the subcutaneous MC-38 model (Example 4); format: in vivo, Mus musculus; details: for MST: endpoint tumor volume 2000 mm^3; for T/C / TGI: Day 12
Description: Tumor sizes were measured three times a week in two dimensions using a caliper, and the volume expressed in mm^3 using the formula: V=0.5 a×b^2 where a and b are the long and short diameters of the tumor, respectively. The tumor sizes were then used for the calculations of both tumor growth inhibition (TGI) and T/C values.
TGI is calculated for each group using the formula: […]
TVTreatment_DayN is the average tumor volume of a treatment group on a given day, TVTreatment_Day0 is the average tumor volume of the treatment group on the first day of treatment, TVVehicle_DayN is the average tumor volume of the vehicle control group on a given day, and TVVehicle_Day0 is the average tumor volume of the vehicle group on the first day of treatment.
The T/C value (in percent) is an indication of antitumor effectiveness, T/C (%)=RTVTreatment/RTVControl×100% (RTVTreatment: the mean RTV of the treatment group; RTVControl: the mean RTV of the vehicle treated group). RTV (relative tumor volume)=TVDayN/TVDay0. TVDayN and TVDay0 is the tumor volume on day N and Day 0 respectively. T/C (%)≤42% is considered as significant antitumor activity and <10% is considered as highly significant antitumor activity by the National Cancer Institute criteria.
Animal survival curve: When an individual animal reached to the termination endpoint (TV>2000 mm^3), the mouse was euthanized. The time from treatment initiation to the termination was deemed as its survival time. Survival curve was plotted by Kaplan-Meier method. Median survival time (MST) was calculated for each group. Increase of life span (ILS) was calculated according to the following formula: […]
ILS (%)>25% is considered as a biologically significant survival benefit.
The tumor volume between different groups was analyzed by two-way repeated measures ANOVA. Dunnett post hoc test was used for the comparisons with vehicle group. All data analyzed using GraphPad Prism 6.0. P<0.05 is considered to be statistically significant.
Female C57BL/6 mice were inoculated subcutaneously at right flank with MC-38 cells for tumor development. Six days after tumor inoculation, 64 mice with tumor size ranging from 50-100 mm^3 (average tumor size 71 mm^3) were selected and assigned into 8 groups using stratified randomization with 8 mice per group based upon their tumor volumes. The treatments were started from the day of randomization (defined as D0), Group 1 was treated with Vehicle (Tween 80:Ethanol:Saline—5:5:90 v/v/v), s.c., qd×14, Group 2 was treated with Anti-PD-1 10 mg/kg i.p. q4d×4, Group 3 was treated with Compound 1 3 mpk qd×5, sc followed by 1 mpk, qd×9, sc, Group 4 was treated with Compound 1 3 mpk qd×5, sc followed by 1 mpk, qd×9, sc+anti PD-1 q4d×4, ip, Group 5 was treated with Compound 1 1 mpk qd×5, sc followed by 0.3 mpk, qd×9, sc, Group 6 was treated with Compound 1 1 mpk qd×5, sc followed by 0.3 mpk, qd×9, sc+anti PD-1 q4d×4, ip, Group 7 was treated with Compound 1 0.3 mpk qd×5, sc followed by 0.1 mpk, qd×9, sc and Group 8 was treated with Compound 1 0.3 mpk qd×5, sc followed by 0.1 mpk, qd×9, sc+anti PD-1 q4d×4, ip. The tumor sizes were measured three times per week during the treatment. The entire study was terminated on D56 after start of the treatment. […]
The MC-38 tumor cells were maintained in vitro as a monolayer culture in DMEM medium supplemented with 10% heat inactivated fetal bovine serum and 100 μg/mL penicillin streptomycin at 37° C. in an atmosphere of 5% CO2 in air. The tumor cells were routinely subcultured twice weekly by trypsin-EDTA treatment. The cells growing to a confluency around 70%-80% were harvested and counted for tumor inoculation. The cultured MC-38 were harvested, re-suspended in base medium at a density of 1×10^7 cells/mL with viability >90%. Each mouse was inoculated subcutaneously at the right flank with 1×10^6 cells in 0.1 ml base medium for tumor development. […]

[3] = Group 4, 1.4 mg/kg SC 5 d ON 2 d OFF x3 cycles
[4] = Group 4, 1.4 mg/kg SC 5 d ON 2 d OFF x3 cycles, day 21
[5] = Group 5, 3.3 mg/kg IV tiw x3 cycles
[6] = Group 5, 3.3 mg/kg IV tiw x3 cycles, day 21

In the case of `CC(=O)N[C@@H](Cc1c[nH]c2ccccc12)C(=O)N[C@@H](CCC(=O)C=[N+]=[N-])C(=O)OC(C)C` [Compound 1, Isopropyl (S)-2-((S)-2-acetamido-3-(1H-indol-3-yl)propanamido)-6-diazo-5-oxohexanoate], the “RTV at day 21” value [1, 3] is reported as 8.61 ± 1.30, the “Tumor Size at day 21” value [1, 3] is reported as 1300 ± 161 mm^3 and the Tumor volume ([1]; Group 4, 1.4 mg/kg SC 5 d ON 2 d OFF x3 cycles, day 0) is reported as 155 ± 10 mm^3. It also gave a Tumor volume ([1]; Group 4, 1.4 mg/kg SC 5 d ON 2 d OFF x3 cycles, day 4) of 187 ± 12 mm^3, a Tumor volume ([1]; Group 4, 1.4 mg/kg SC 5 d ON 2 d OFF x3 cycles, day 7) of 273 ± 25 mm^3 and a Tumor volume ([1]; Group 4, 1.4 mg/kg SC 5 d ON 2 d OFF x3 cycles, day 11) of 500 ± 59 mm^3. The Tumor volume ([1]; Group 4, 1.4 mg/kg SC 5 d ON 2 d OFF x3 cycles, day 14) was 658 ± 92 mm^3, the Tumor volume ([1]; Group 4, 1.4 mg/kg SC 5 d ON 2 d OFF x3 cycles, day 18) was 1050 ± 112 mm^3 and the T/C [1, 4] was 75.88%. The TGI [1, 4] was 28.57%, the Tumor volume [1, 4] was 1300 ± 161 mm^3 and the “RTV at day 21” value [1, 5] was 9.55 ± 1.16. For the same molecule, the “Tumor Size at day 21” value [1, 5] was 1453 ± 171 mm^3, the Tumor volume ([1]; Group 5, 3.3 mg/kg IV tiw x3 cycles, day 0) was 156 ± 10 mm^3 and the Tumor volume ([1]; Group 5, 3.3 mg/kg IV tiw x3 cycles, day 4) was 180 ± 12 mm^3. For the same molecule, the Tumor volume ([1]; Group 5, 3.3 mg/kg IV tiw x3 cycles, day 7) was 268 ± 21 mm^3, the Tumor volume ([1]; Group 5, 3.3 mg/kg IV tiw x3 cycles, day 11) was 473 ± 39 mm^3 and the Tumor volume ([1]; Group 5, 3.3 mg/kg IV tiw x3 cycles, day 14) was 647 ± 66 mm^3. The Tumor volume ([1]; Group 5, 3.3 mg/kg IV tiw x3 cycles, day 18) was 1107 ± 119 mm^3, the T/C [1, 6] was 84.12% and the TGI [1, 6] was 19.04%. The Tumor volume [1, 6] was 1453 ± 171 mm^3, the ILS ([2]; Cpd. 1 0.3 mpk/0.1 mpk) was 114.29% and the “RTV at day 12” value ([2]; Cpd. 1 0.3 mpk/0.1 mpk) was 1.67 ± 0.03. For the same molecule, the MST ([2]; Cpd. 1 0.3 mpk/0.1 mpk) was 30 days, the ILS ([2]; Cpd. 1 1 mpk/0.3 mpk) was 135.71% and the “RTV at day 12” value ([2]; Cpd. 1 1 mpk/0.3 mpk) was 0.36 ± 0.09. The MST ([2]; Cpd. 1 1 mpk/0.3 mpk) was 33 days, the ILS ([2]; Cpd. 1 3 mpk/1 mpk) was 135.71% and the “RTV at day 12” value ([2]; Cpd. 1 3 mpk/1 mpk) was 0.11 ± 0.03. It also gave an MST ([2]; Cpd. 1 3 mpk/1 mpk) of 33 days, a T/C ([2]; Cpd. 1 0.3 mpk/0.1 mpk) of 7.02% and a TGI ([2]; Cpd. 1 0.3 mpk/0.1 mpk) of 97.27%. For the same molecule, the T/C ([2]; Cpd. 1 1 mpk/0.3 mpk) was 1.51%, the TGI ([2]; Cpd. 1 1 mpk/0.3 mpk) was 102.87% and the T/C ([2]; Cpd. 1 3 mpk/1 mpk) was 0.46%. The TGI ([2]; Cpd. 1 3 mpk/1 mpk) was 103.98%.
